The results in this text go back to PubChem BioAssay (NCI).

What all share (assay): NCI tumour cell line growth inhibition, 48 h
Test [1] deals with 786-0 renal.
The test system of test [2] is CCRF-CEM leukemia.
The subject of test [3] is HL-60(TB) leukemia.
The subject of test [4] is HOP-62 NSCLC.
Test [5] concerns NCI-H23 lung.
Test [6] concerns NCI/ADR-RES ovarian.
For test [7], the system named is RXF 393 renal.
The test system of test [8] is UACC-62 melanoma.

SMILES strings stand for the structures. “And” between values parts separate entries of the source, which are not always exact repeats. Identical values can stand only once.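 Dose response: 5 concentrations. Exposure: 48 h. Format: 96-well plates. Endpoint: linear interpolation; highest concentration if not reached. GI50 marks 50% less growth. TGI: total growth inhibition.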

Regarding `O=C1/C(=C/c2ccccc2[N+](=O)[O-])COc2ccc(O)cc21`, the GI50 in test [1] is 1.72 µM; in test [2], 0.326 µM; in test [3], 1.76 µM; in test [4] it was 5.21 µM; in test [5], 1.59 µM; in test [6], 1.99 µM. For the same compound, the values for the GI50 in test [7] and in test [8] were 1230 nM and 1.52 µM, respectively. For the same compound, the TGI was determined as 10 µM in test [1]; 2.52 µM in test [2]; 5.68 µM in test [3]; 19.3 µM in test [4]; 4.41 µM in test [5]; 8.09 µM in test [6]. The TGI amounted to 3.02 µM in test [7] and 3.08 µM in test [8].

Take `CN(C)c1nc(N)c(C#N)c(C#N)c1C#N`: the TGI in test [1] was more than 10 µM; in test [2] it was more than 10 µM; in test [3], more than 6.07 µM; in test [4] it was more than 10 µM; in test [5], more than 10 µM; in test [6] it was more than 10 µM. Besides, the TGI in test [7] and in test [8] was more than 10 µM throughout.

`COc1cc(C(=O)/C=C/c2c(C(F)(F)F)nc3ccccn23)cc(OC)c1OC`: the GI50 in test [1] is 1.72 µM; in test [2], 4.15 µM; in test [3], 4.12 µM; in test [4], 2.97 µM; in test [5], 1.51 µM; in test [6], 1.41 µM. For the same compound, the GI50 is 1870 nM in test [7] and 1.66 µM in test [8]. Also, the TGI in test [1] is 3.42 µM; in test [2] it was more than 100 µM; in test [3], more than 100 µM; in test [4] it was 8.53 µM; in test [5], 4.01 µM; in test [6], 21.8 µM. Also, the TGI in test [7] was 3.91 µM; in test [8] it was 3.32 µM.

For `S=C(NCc1ccc2c(c1)OCO2)N1CCN(c2ncnc3c2oc2ccccc23)CC1`, the GI50 in test [1] was more than 100 µM; in test [2], more than 82.7 µM; in test [3], 4.87 µM; in test [4], more than 100 µM; in test [5], 5.34 µM; in test [6], 4.69 µM. For the same compound, the GI50 in test [7] is more than 100000 nM; in test [8], 14.1 µM. For the same compound, the TGI in test [1] is more than 100 µM; in test [2], more than 100 µM; in test [3], more than 95.4 µM; in test [4] it was more than 100 µM; in test [5], more than 100 µM; in test [6] it was more than 100 µM. Also, the TGI in test [7] and in test [8] was more than 100 µM throughout.

Turning to `O=C(c1cc(Cc2n[nH]c(=O)c3ccccc23)ccc1F)N1CCN(C(=O)C2CC2)CC1`, the GI50 was more than 100 µM in test [1]; more than 100 µM in test [2]; more than 100 µM in test [3]; 43.2 µM in test [4]; 23.6 µM and 40.3 µM in test [5]; more than 100 µM in test [6]. In addition, the GI50 was 52100 nM and > 41400 nM in test [7]; 67.9 µM and 76.2 µM in test [8]. The TGI in test [1], in test [2], in test [3], in test [4], in test [5] and in test [6] was more than 100 µM throughout. Moreover, the TGI in test [7] and in test [8] was more than 100 µM throughout.

In the case of `CCOC(=O)C(Cc1ccc(N(CCCl)CCCl)cc1)NC(=O)C(Cc1ccccc1)NC(C)=O` (stereo not drawn), the TGI was more than 0.399 µM in test [1]; 0.213 µM in test [2]; more than 0.264 µM in test [3]; more than 0.431 µM in test [4]; more than 0.304 µM in test [5]; more than 0.618 µM in test [6]. Besides, the figures for the TGI in test [7] and in test [8] were 0.259 µM and more than 0.277 µM, respectively.

As for `COc1ccc(COc2cc3oc(=O)c4cc(C(C)O)ccc4c3cc2OC)cc1` (stereo not drawn), the GI50 is 13.1 µM in test [1]; more than 21.6 µM in test [2]; 8.15 µM in test [4]; 16.6 µM in test [5]; 8.4 µM in test [6]; 5330 nM in test [7]. Besides, the GI50 in test [8] is 8.47 µM. Further, the TGI in test [1] was 56.7 µM; in test [2], more than 100 µM; in test [3] it was more than 100 µM; in test [4] it was 29.4 µM; in test [5], more than 86.6 µM; in test [6] it was 44.4 µM. Besides, the TGI in test [7] was 15.6 µM; in test [8], 34 µM.

Consider `[Cl][Cu][Cl]`, for which the GI50 in test [1], in test [2], in test [3], in test [4], in test [5] and in test [6] was more than 10 µM throughout. In addition, the figures for the GI50 in test [7] and in test [8] were more than 10000 nM and more than 10 µM, respectively. Besides, the TGI in test [1], in test [2], in test [3], in test [4], in test [5] and in test [6] was more than 10 µM in each case. Also, the TGI in test [7] and in test [8] was more than 10 µM throughout.

With `Nc1nc2ccccc2c2c1S(=O)(=O)c1ccc(Cl)cc1C2=O`, the GI50 is 5.93 µM in test [1]; 0.623 µM in test [2]; 1.39 µM in test [3]; 2.31 µM in test [4]; 2.48 µM in test [5]; 1.46 µM in test [6]. The GI50 in test [7] is 784 nM; in test [8] it was 1.68 µM. For the same compound, the TGI in test [1] was more than 50 µM; in test [2] it was 4 µM; in test [3] it was 3.7 µM; in test [4], more than 50 µM; in test [5], more than 50 µM; in test [6] it was 6.27 µM. Also, the TGI in test [7] was 2.05 µM; in test [8], 24.8 µM.

In the case of `Nc1nc(-c2ccc(Cl)cc2)nc2c1sc(=S)n2-c1ccccc1`, the GI50 in test [1] is 1.84 µM; in test [2], 27 µM; in test [3], more than 100 µM; in test [4], 3.4 µM; in test [5], 4.05 µM; in test [6], 3.7 µM. Also, the GI50 in test [7] was 2510 nM; in test [8] it was 4.32 µM. The TGI is 3.62 µM in test [1]; more than 100 µM in test [2]; more than 100 µM in test [3]; 11.7 µM in test [4]; 18.2 µM in test [5]; 19.8 µM in test [6]. For the same compound, the TGI is 6.19 µM in test [7] and 22.6 µM in test [8].
